Assay [1] deals with T1, human glucagon-like peptide 1 receptor (GLP-1R) (Homo sapiens, UniProt P43220).
T1 construct: expressed in transfected cells
As to the kind of experiment: GLP-1 receptor efficacy assay (cAMP AlphaScreen, CHO cells). The settings on record: Table 1A; for EC50: CHO cells expressing human GLP-1-R, cAMP, read-out: EC50 hGLP-1R CHO-K1; for Ratio GLP-1/Glucagon: EC50 [GLP-1R]/EC50 [Glucagon-R]. It is filed as cell-based. In outline: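 Stably transfected CHO clones expressing human GLP-1R or glucagon receptor were treated with increasing peptide concentrations for 15 min at room temperature in KRBH containing 0.1 mM IBMX. After lysis, cAMP was quantified by AlphaScreen; EC50 and efficacy relative to GLP-1 or glucagon reference came from curve fitting.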
A general note: In Alpha technology, singlet oxygen from a donor bead excites a nearby acceptor bead.

For assay [2], the target named is T2, endogenous GLP-1 receptors (Mus musculus, UniProt O35659).
T2 construct: Agonistic activity of the test compounds on endogenous GLP-1 receptors; endogenous in cells
T2 sequence (O35659 22-463): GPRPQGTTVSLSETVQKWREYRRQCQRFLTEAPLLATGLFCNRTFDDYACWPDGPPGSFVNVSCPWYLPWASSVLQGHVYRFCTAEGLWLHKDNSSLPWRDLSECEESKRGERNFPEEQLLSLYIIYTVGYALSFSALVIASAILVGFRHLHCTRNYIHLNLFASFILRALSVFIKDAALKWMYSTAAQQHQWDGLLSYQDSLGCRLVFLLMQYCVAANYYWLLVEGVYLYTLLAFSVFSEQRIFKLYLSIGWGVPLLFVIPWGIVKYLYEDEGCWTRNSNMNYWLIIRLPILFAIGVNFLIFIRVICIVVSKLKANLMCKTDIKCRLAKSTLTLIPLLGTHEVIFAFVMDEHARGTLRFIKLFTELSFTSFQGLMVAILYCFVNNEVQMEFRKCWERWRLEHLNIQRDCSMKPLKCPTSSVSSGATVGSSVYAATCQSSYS
As to the kind of experiment: Agonistic activity on endogenous GLP-1 receptor (cAMP, murine insulinoma cell line). It is filed as cell-based. The following applies: intracellular cAMP, 15 minutes at 26° C.; read-out: EC50 GLP-1R (murine insulinoma cells). In short, it runs like this: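 Murine insulinoma cells were exposed 15 min at 26° C in KRBH with 0.1% DMSO to compound or GLP-1 ([…]), then cAMP was measured by AlphaScreen against a standard curve, in quadruplicate. pEC50 came from curve fits; % CTL was normalised to the maximal GLP-1 cAMP response.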

Assay [3] is described as follows: Oral glucose tolerance test (OGTT). It is filed as in vivo, C57BL/6J mice. The settings on record: blood glucose AUC 0-120 min, 10 nmol/kg s.c. 4 h before oral glucose 2 g/kg. In short, it runs like this:
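Male C57BL/6J mice (n=7) were fasted for 10 h and given peptide at 10 nmol/kg s.c. in phosphate-buffered saline 4 h before an oral glucose bolus of 2 g/kg; controls got vehicle. Tail-blood glucose was read by glucometer up to 120 min, and AUC was computed by the trapezoidal rule without baseline correction.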

Molecules are shown by their SMILES. *1 amine or outer side, *2 acyl side, *3 side chain or, on linkers, in order; H or OH if unused. Where a SMILES comes first, the peptide text is derived from it. Side-chain parts run from the residue outwards. [ ]: non-standard residue; d: D form. The star is where a group is joined. γGlu = O=C(O)[C@H](CCC(=O)[*:2])N[*:1]; Palmitoyl = CCCCCCCCCCCCCCCC(=O)*; Aib = CC(C)(N)C(=O)O

T1 sequence (P43220 24-463): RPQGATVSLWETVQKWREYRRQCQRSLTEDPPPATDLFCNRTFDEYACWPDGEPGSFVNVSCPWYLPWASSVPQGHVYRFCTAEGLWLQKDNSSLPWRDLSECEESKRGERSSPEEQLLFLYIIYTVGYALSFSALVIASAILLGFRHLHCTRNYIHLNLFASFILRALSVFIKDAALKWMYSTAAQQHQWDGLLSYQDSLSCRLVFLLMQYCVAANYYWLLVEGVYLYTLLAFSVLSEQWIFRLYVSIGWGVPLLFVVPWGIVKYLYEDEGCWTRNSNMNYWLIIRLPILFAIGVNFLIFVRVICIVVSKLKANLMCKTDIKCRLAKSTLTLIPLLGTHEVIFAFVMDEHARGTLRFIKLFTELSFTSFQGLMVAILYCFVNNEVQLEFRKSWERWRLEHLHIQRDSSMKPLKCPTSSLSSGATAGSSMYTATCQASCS

For orientation: EC50 means the concentration needed to bring the measured effect to its halfway point. On to `CCCCCCCCCCCCCCCC(=O)N[C@@H](CCC(=O)NCCCC[C@H](NC(=O)[C@H](CO)NC(=O)[C@H](CC(=O)O)NC(=O)[C@H](CC(C)C)NC(=O)[C@H](Cc1ccc(O)cc1)NC(=O)[C@H](CCCCN)NC(=O)[C@H](CO)NC(=O)[C@H](Cc1ccc(O)cc1)NC(=O)[C@H](CC(=O)O)NC(=O)[C@H](CO)NC(=O)[C@@H](NC(=O)[C@H](Cc1ccccc1)NC(=O)[C@@H](NC(=O)CNC(=O)[C@H](CCC(N)=O)NC(=O)[C@H](CO)NC(=O)[C@@H](N)Cc1c[nH]cn1)[C@@H](C)O)[C@@H](C)O)C(=O)N[C@@H](C)C(=O)N[C@@H](C)C(=O)N[C@@H](Cc1c[nH]cn1)C(=O)N[C@@H](CC(=O)O)C(=O)N[C@@H](Cc1ccccc1)C(=O)N[C@H](C(=O)N[C@@H](CCC(=O)O)C(=O)N[C@@H](Cc1c[nH]c2ccccc12)C(=O)N[C@@H](CC(C)C)C(=O)N[C@@H](CC(C)C)C(=O)N[C@@H](CCCNC(=N)N)C(=O)O)C(C)C)C(=O)O` [Compound 9, H-HSQGTFTSDYSKYLDS-K(Hexadecanoyl-isoGlu)-AAHDFVEWLLR-OH] (H-HSQGTFTSDYSKYLDSK([γGlu-Palmitoyl])AAHDFVEWLLR-OH), for which, in assay [1], the EC50 stood at 0.35 nM and the “Ratio GLP-1/Glucagon” value came out at 1.40. Moreover, the EC50 in assay [2] worked out at 1.02 nM. For the same molecule, the “AUC (% Ctrl)” value in assay [3] is reported as 57 % Ctrl.
As to `CCCCCCCCCCCCCCCC(=O)N[C@@H](CCC(=O)NCCCC[C@H](NC(=O)[C@H](CCC(=O)O)NC(=O)[C@H](CC(=O)O)NC(=O)[C@H](CC(C)C)NC(=O)[C@H](Cc1ccc(O)cc1)NC(=O)[C@H](CCCCN)NC(=O)[C@H](CO)NC(=O)[C@H](Cc1ccc(O)cc1)NC(=O)[C@H](CC(=O)O)NC(=O)[C@H](CO)NC(=O)[C@@H](NC(=O)[C@H](Cc1ccccc1)NC(=O)[C@@H](NC(=O)CNC(=O)[C@H](CCC(N)=O)NC(=O)[C@H](CO)NC(=O)[C@@H](N)Cc1c[nH]cn1)[C@@H](C)O)[C@@H](C)O)C(=O)N[C@@H](C)C(=O)N[C@@H](C)C(=O)N[C@@H](Cc1c[nH]cn1)C(=O)N[C@@H](CCC(=O)O)C(=O)N[C@@H](Cc1ccccc1)C(=O)N[C@H](C(=O)N[C@@H](CCC(=O)O)C(=O)N[C@@H](Cc1c[nH]c2ccccc12)C(=O)N[C@@H](CC(C)C)C(=O)N[C@@H](CCC(=O)O)C(=O)N[C@@H](CO)C(=O)N[C@@H](C)C(N)=O)C(C)C)C(=O)O` [Compound 10, H-HSQGTFTSDYSKYLDE-K(Hexadecanoyl-isoGlu)-AAHEFVEWLESA-NH2] (H-HSQGTFTSDYSKYLDEK([γGlu-Palmitoyl])AAHEFVEWLESA-NH2), in assay [1], the EC50 was determined as 0.23 nM and the “Ratio GLP-1/Glucagon” value was 1.00. Moreover, the EC50 in assay [2] worked out at 0.33 nM. Further, the “AUC (% Ctrl)” value in assay [3] worked out at 46 % Ctrl.
In the case of `CCCCCCCCCCCCCCCC(=O)N[C@@H](CCC(=O)NCCCC[C@H](NC(=O)[C@H](CO)NC(=O)[C@H](CC(=O)O)NC(=O)[C@H](CC(C)C)NC(=O)[C@H](Cc1ccc(O)cc1)NC(=O)[C@H](CCCNC(=N)N)NC(=O)[C@H](CO)NC(=O)[C@H](Cc1ccc(O)cc1)NC(=O)[C@H](CC(=O)O)NC(=O)[C@H](CO)NC(=O)[C@@H](NC(=O)[C@H](Cc1ccccc1)NC(=O)[C@@H](NC(=O)CNC(=O)[C@H](CCC(N)=O)NC(=O)[C@H](CO)NC(=O)[C@@H](N)Cc1c[nH]cn1)[C@@H](C)O)[C@@H](C)O)C(=O)N[C@@H](C)C(=O)N[C@@H](C)C(=O)N[C@@H](Cc1c[nH]cn1)C(=O)N[C@@H](CC(=O)O)C(=O)N[C@@H](Cc1ccccc1)C(=O)N[C@H](C(=O)N[C@@H](CCC(=O)O)C(=O)N[C@@H](Cc1c[nH]c2ccccc12)C(=O)N[C@@H](CC(C)C)C(=O)N[C@@H](CC(C)C)C(=O)N[C@@H](CO)C(=O)N[C@@H](C)C(N)=O)C(C)C)C(=O)O` [Compound 12, H-HSQGTFTSDYSRYLDS-K(Hexadecanoyl-isoGlu)-AAHDFVEWLLSA-NH2] (H-HSQGTFTSDYSRYLDSK([γGlu-Palmitoyl])AAHDFVEWLLSA-NH2), in assay [1], the 50% effective concentration (EC50) is 0.37 nM and the “Ratio GLP-1/Glucagon” value turned out to be 0.86. Moreover, the EC50 in assay [2] amounted to 1.62 nM. Also, in assay [3], the “AUC (% Ctrl)” value is given as 56 % Ctrl.
The like results for `CCCCCCCCCCCCCCCC(=O)N[C@@H](CCC(=O)NCCCC[C@H](NC(=O)[C@H](CO)NC(=O)[C@H](CC(=O)O)NC(=O)[C@H](CC(C)C)NC(=O)[C@H](Cc1ccc(O)cc1)NC(=O)[C@H](CCCCN)NC(=O)[C@H](CO)NC(=O)[C@H](Cc1ccc(O)cc1)NC(=O)[C@H](CC(=O)O)NC(=O)[C@H](CO)NC(=O)[C@@H](NC(=O)[C@H](Cc1ccccc1)NC(=O)[C@@H](NC(=O)CNC(=O)[C@H](CCC(N)=O)NC(=O)C(C)(C)NC(=O)[C@@H](N)Cc1c[nH]cn1)[C@@H](C)O)[C@@H](C)O)C(=O)N[C@@H](C)C(=O)N[C@@H](C)C(=O)N[C@@H](Cc1c[nH]cn1)C(=O)N[C@@H](CC(=O)O)C(=O)N[C@@H](Cc1ccccc1)C(=O)N[C@H](C(=O)N[C@@H](CCC(=O)O)C(=O)N[C@@H](Cc1c[nH]c2ccccc12)C(=O)N[C@@H](CC(C)C)C(=O)N[C@@H](CC(C)C)C(=O)N[C@@H](CO)C(=O)N[C@@H](C)C(=O)O)C(C)C)C(=O)O` [Compound 13, H-H-Aib-QGTFTSDYSKYLDS-K(Hexadecanoyl-isoGlu)-AAHDFVEWLLSA-OH] were, in that order, 0.51 nM, 0.52, 1.06 nM and 55 % Ctrl.
As for `CCCCCCCCCCCCCCCC(=O)N[C@@H](CCC(=O)NCCCC[C@H](NC(=O)[C@H](CCC(=O)O)NC(=O)[C@H](CC(=O)O)NC(=O)[C@H](CC(C)C)NC(=O)[C@H](Cc1ccc(O)cc1)NC(=O)[C@H](CCCCN)NC(=O)[C@H](CO)NC(=O)[C@H](Cc1ccc(O)cc1)NC(=O)[C@H](CC(=O)O)NC(=O)[C@H](CO)NC(=O)[C@@H](NC(=O)[C@H](Cc1ccccc1)NC(=O)[C@@H](NC(=O)CNC(=O)[C@H](CCC(N)=O)NC(=O)C(C)(C)NC(=O)[C@@H](N)Cc1c[nH]cn1)[C@@H](C)O)[C@@H](C)O)C(=O)N[C@@H](CCCNC(=N)N)C(=O)N[C@@H](C)C(=O)N[C@@H](CCCCN)C(=O)N[C@@H](CC(=O)O)C(=O)N[C@@H](Cc1ccccc1)C(=O)N[C@H](C(=O)N[C@@H](CCC(=O)O)C(=O)N[C@@H](Cc1c[nH]c2ccccc12)C(=O)N[C@@H](CC(C)C)C(=O)N[C@@H](CC(C)C)C(=O)N[C@@H](CO)C(=O)N[C@@H](C)C(=O)O)[C@@H](C)CC)C(=O)O` [Compound 14, H-H-Aib-QGTFTSDYSKYLDE-K(Hexadecanoyl-isoGlu)-RAKDFIEWLLSA-OH] (H-H[Aib]QGTFTSDYSKYLDEK([γGlu-Palmitoyl])RAKDFIEWLLSA-OH), the EC50 in assay [1] came out at 0.53 nM; in assay [2], 0.72 nM. Also, in assay [1], the “Ratio GLP-1/Glucagon” value came to 0.98. The “AUC (% Ctrl)” value in assay [3] is 59 % Ctrl.
For the molecule `CCCCCCCCCCCCCCCC(=O)N[C@@H](CCC(=O)NCCCC[C@H](NC(=O)[C@H](CCC(=O)O)NC(=O)[C@H](CC(=O)O)NC(=O)[C@H](CC(C)C)NC(=O)[C@H](Cc1ccc(O)cc1)NC(=O)[C@H](CCCCN)NC(=O)[C@H](CO)NC(=O)[C@H](Cc1ccc(O)cc1)NC(=O)[C@H](CC(=O)O)NC(=O)[C@H](CO)NC(=O)[C@@H](NC(=O)[C@H](Cc1ccccc1)NC(=O)[C@@H](NC(=O)CNC(=O)[C@H](CCC(N)=O)NC(=O)C(C)(C)NC(=O)[C@@H](N)Cc1c[nH]cn1)[C@@H](C)O)[C@@H](C)O)C(=O)N[C@@H](C)C(=O)N[C@@H](C)C(=O)N[C@@H](CCCCN)C(=O)N[C@@H](CC(=O)O)C(=O)N[C@@H](Cc1ccccc1)C(=O)N[C@H](C(=O)N[C@@H](CCC(=O)O)C(=O)N[C@@H](Cc1c[nH]c2ccccc12)C(=O)N[C@@H](CC(C)C)C(=O)N[C@@H](CCC(=O)O)C(=O)N[C@@H](CO)C(=O)N[C@@H](C)C(N)=O)[C@@H](C)CC)C(=O)O` [Compound 15, H-H-Aib-QGTFTSDYSKYLDE-K(Hexadecanoyl-isoGlu)-AAKDFIEWLESA-NH2], in assay [1], the EC50 was 0.19 nM and the “Ratio GLP-1/Glucagon” value came to 0.31. Moreover, the EC50 in assay [2] was found to be 0.3 nM. In addition, in assay [3], the “AUC (% Ctrl)” value is reported as 42 % Ctrl.

The values are drawn from US10253081B2, “Glucagon analogues” (Zealand Pharma A/S, priority 2012, dated 2019).
